Data as given in US6395740B1, “Calcitonin mimetics” (ZymoGenetics, Inc., priority 1997, dated 2002).
In brackets after ≈: the same amount, converted by molar mass.

How the values were obtained:
[1] = molecular target: T1, human calcitonin receptor (Homo sapiens, UniProt P30988); experiment: CRE-luciferase assay for calcitonin mimetic activity; type: cell-based
T1 construct: expressed in transfected cells; host or cells: BHK (baby hamster kidney) cells, line Hollex-2 (Hollex 1 in the general description)
T1 sequence (P30988 25-474): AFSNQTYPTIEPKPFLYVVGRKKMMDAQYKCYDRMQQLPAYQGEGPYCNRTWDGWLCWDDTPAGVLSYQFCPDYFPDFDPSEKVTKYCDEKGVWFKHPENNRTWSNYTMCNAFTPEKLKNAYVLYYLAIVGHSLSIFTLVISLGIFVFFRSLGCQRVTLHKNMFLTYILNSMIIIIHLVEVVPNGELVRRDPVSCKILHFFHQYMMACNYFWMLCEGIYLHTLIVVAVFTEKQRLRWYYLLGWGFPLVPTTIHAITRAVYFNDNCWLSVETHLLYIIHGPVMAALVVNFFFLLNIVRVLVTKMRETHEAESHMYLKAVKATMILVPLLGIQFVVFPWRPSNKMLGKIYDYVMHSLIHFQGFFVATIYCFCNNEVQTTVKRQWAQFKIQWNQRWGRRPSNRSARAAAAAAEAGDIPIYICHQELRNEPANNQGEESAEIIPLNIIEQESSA
Text: An alternative assay system (described in WO96/31536 which is incorporated herein in its entirety) involves selection of substances that are able to induce expression of a cyclic AMP response element (CRE)-luciferase reporter gene, as a consequence of elevated cAMP levels, in cells expressing a calcitonin receptor, but not in cells lacking calcitonin receptor expression. Such cells could include, for example, Boris/KS10-3 (expressing hamster calcitonin receptor and a CRE-luciferase reporter gene in baby hamster kidney cells (BHK 570 cells)) or Hollex 1 (expressing human calcitonin receptor and a CRE-luciferase reporter gene in BHK cells, as described in WO96/31536) or KZ10-20-48/pLJ6-4-25, which expresses the human glucagon receptor and a CRE-luciferase reporter gene in BHK cells. The human glucagon receptor is another member of the G-protein-coupled receptor family that transduces signal through adenylate cyclase-mediated elevation of cAMP.
This CRE-luciferase assay measures the end result of a multi-step signal transduction pathway triggered when a calcitonin mimetic stimulates the G-coupled calcitonin receptor. The complexity of this pathway provides multiple mechanisms for induction of luciferase transcription at points that are downstream of the calcitonin receptor, and therefore may not be calcitonin receptor-specific (e.g., forskolin's direct activation of adenylate cyclase). Any response triggered by non-specific inducers is eliminated by counter screening using the calcitonin receptor-negative cell lines described above.
Receptor-positive and -negative cell lines were maintained by serial passage in growth medium (DMEM supplemented with 10% heat-inactivated fetal calf serum (HI-FCS), 2 mM L-glutamine, 1 mM sodium pyruvate, 250 nM MTX, and 1 mg/mL G418). On the day prior to assay, cells were trypsinized, adjusted to 2×10^5 cells/mL in growth medium, plated in opaque white Dynatech Microlite microtiter tissue culture plates at 100 μL/well (2×10^4 cells), and grown overnight to confluence (37° C., 5% CO2 atmosphere)
Test substances were prepared in DMSO at 100 times the final desired assay concentration. Induction was initiated by adding 100 μL/well test substance diluted 1:100 or 1:1000 (only first round screening extracts were diluted 1:100) in assay medium (DMEM supplemented with 10% HI-FCS, 2 mM L-glutamine, 1 mM sodium pyruvate and 20 mM Hepes, pH 7.25). Controls were included on each plate: untreated wells (basal), […] forskolin, and 100 nM human calcitonin. For test substances prepared in DMSO, an equal concentration of DMSO was included in control wells (not to exceed a final assay concentration of 2% DMSO, with a preferred maximum of 1%). Plates were incubated for 3 to 8 hours (4 hours preferred) at 37° C. in an atmosphere of 5% CO2.
Following induction, luciferase activity was measured using a Promega luciferase assay kit (E1500) according to the assay kit protocol. Briefly, assay medium was removed and cells were washed once with phosphate buffered saline (PBS). After the wash, 25 μL of lysis buffer was added to each well, and the plates were incubated for 15 minutes at room temperature. Fifty microliters of Luciferase Assay Substrate (Promega, Corp.) was added to each well and the plates were transferred to a Labsystems Lumiscan microtiter luminometer. The amount of luminescence (relative light units, RLU) was determined by “Fastscan” following a 0.1 second/well integration of signal. Basal (uninduced) luciferase signal was subtracted from all measurements, and the luciferase signal induced by test samples was expressed as a percentage of the signal in the calcitonin and forskolin controls. […]

[2] = tested on: PTH-induced bone resorption in mouse calvariae; experiment: Calvarial assay: inhibition of PTH-induced bone resorption (calcium release); type: cell-based; settings: 1 nM PTH 1-34, 72 hours, read-out: Release of PTH Induced Ca++ IC50
Method: Calvaria from 4-day old neonatal CD-1 mice (pregnant mice received from Charles River Laboratories, Wilmington, Mass.) were trimmed with fine-tipped scissors to leave the parietal regions, including the sagittal suture. These trimmed bones were placed singly per well into 6-well cell culture cluster plates (Costar, Pleasanton, Calif.) with 1 mL/well of growth medium (DMEM, BioWhittaker, Walkersville, Md.) with 4.5 g/L glucose, 0.29 mg/mL L-glutamine, 1 mM sodium pyruvate, 15% heat-inactivated horse serum, and antibiotics (penicillin-G 50 μg/mL, streptomycin 50 μg/mL, and neomycin 100 μg/mL), and rocked gently (RedRocker™, model PR50-115V, Hoefer, San Francisco, Calif.) at 37° C. in a 5% CO2 humidified incubator for 24 hours preincubation.
Following preincubation, medium was removed and replaced with 1.5 mL/well of growth medium containing 1 nM parathyroid hormone (PTH) 1-34 (Sigma) to stimulate bone resorption. For evaluation of the ability of calcitonin mimetics to inhibit PTH induced bone resorption, mimetic compounds in DMSO were added to the growth medium at concentrations ranging from 1-400 μg/mL (final assay concentration of DMSO less than or equal to […]). In each exierimerec human calcitonin (0.02-20 nM, 0.2-2 nM preferred) was added to PTH treated bones as a positive control. […] All control wells contained a final assay concentration of DMSO equal to that present in calcitonin mimetic treated wells.
Five bones were included in each sample group. Bones were incubated for 72 hours following PTH addition to allow resorption of bone to occur. Observations were made of the general appearance, healthiness and number of cells that migrate from the calvaria during the incubation as a possible indication of possible toxicity. Calvaria to be examined histologically were transferred to glass scintillation vials containing 10 mL of 10% neutral buffered formalin. The medium was removed from the wells, and total calcium measurements were made using a Nova 7/7+7 Electrolyte Analyzer (Nova Biomedical, Waltham, Mass.) according to the manufacturer's specifications. Induction of bone resorption by PTH is seen as an increase in the concentration of calcium in the growth medium due to degradation of the bone matrix.

[3] = rats, evaluated by pQCT or histomorphometry; cited from earlier work

EC50 [1] | IC50 [2] | melting point | Molecule | bone loss associated with combined ovariectomy and immobilization [3]
43.2 µM | 15 µg/mL (≈ 34.1 µM) |  | COc1cc(CN2CCN(C(=O)Nc3cccc(C(F)(F)F)c3)CC2)cc(O)c1OC [Compound 50-2013] | 
 | 50 µg/mL (≈ 110 µM) | 79 to 82 °C | COc1cc(CN2CCN(C(=O)Nc3cccc(C(F)(F)F)c3)CC2)cc(OC)c1OC [Compound 850-0277] | 
66.9 µM | 20 µg/mL (≈ 37.7 µM) |  | COc1cc(CN2CCN(Cc3cc(Br)cc(Br)c3O)CC2)cc(OC)c1OC [Compound 850-1085] | 
291 µM |  |  | COc1cc(CN2CCN(Cc3ccc(OC)c(OC)c3OC)CC2)cc(I)c1O [Compound 850-0221] | 

Continued, molecule first:

Molecule | EC50 [1] | IC50 [2] | melting point | bone loss associated with combined ovariectomy and immobilization [3]
COc1ccc(CN2CCN(Cc3cc(I)c(O)c(OC)c3)CC2)cc1C [Compound 850-0293] | 51.8 to 104 µM | 25 to 50 µg/mL (≈ 51.8 to 104 µM) |  | 
COc1cc(CN2CCN(Cc3cc(Br)ccc3O)CC2)cc(Br)c1O [Compound 850-2346] | 206 µM | 25 µg/mL (≈ 51.4 µM) |  | 
calcitonin |  |  |  | very effective at reducing bone loss
